One data set deals with JAK1 (Homo sapiens, UniProt P23458). Particulars: read-out: half maximal inhibitory concentration [IC50]; cited from earlier work.
For data set [1] the following is noted: total daily dose 1200 mg; cited from earlier work.
Data set [2] relates to IFNGR knockout Res 499 tumors. Nature of the data set: In vivo cytokine rescue studies in CD8 T cell-depleted mice. As to conditions: direct intratumoral injection. Further details: species or system mouse. The procedure:
In vivo cytokine rescue studies: All mice were pre-treated with anti-CD8 two days before tumor injection. Either 1 μg IFNg or 100 ng CXCL10 was mixed in the PBS/tumor cell suspension prior to injection of the tumor. Mice then continued receiving 500-1000 ng IFNG or 100 ng CXCL10 intra/peritumorally every 3 days post-tumor implantation. For flow cytometry experiments, mice were harvested at day 13 to examine the effects of cytokine addback on immune recruitment in the absence of CD8 T cells. For survival experiments, intra/peritumoral injections continued every 3 days for the remainder of the experiment.

In data set [3] the test system is PD-L1 positive advanced NSCLC. Particulars: cited from earlier work.

Entries after “also recorded” stand apart in the source; their conditions may differ.

Chain of JAK1 (P23458 whole entry): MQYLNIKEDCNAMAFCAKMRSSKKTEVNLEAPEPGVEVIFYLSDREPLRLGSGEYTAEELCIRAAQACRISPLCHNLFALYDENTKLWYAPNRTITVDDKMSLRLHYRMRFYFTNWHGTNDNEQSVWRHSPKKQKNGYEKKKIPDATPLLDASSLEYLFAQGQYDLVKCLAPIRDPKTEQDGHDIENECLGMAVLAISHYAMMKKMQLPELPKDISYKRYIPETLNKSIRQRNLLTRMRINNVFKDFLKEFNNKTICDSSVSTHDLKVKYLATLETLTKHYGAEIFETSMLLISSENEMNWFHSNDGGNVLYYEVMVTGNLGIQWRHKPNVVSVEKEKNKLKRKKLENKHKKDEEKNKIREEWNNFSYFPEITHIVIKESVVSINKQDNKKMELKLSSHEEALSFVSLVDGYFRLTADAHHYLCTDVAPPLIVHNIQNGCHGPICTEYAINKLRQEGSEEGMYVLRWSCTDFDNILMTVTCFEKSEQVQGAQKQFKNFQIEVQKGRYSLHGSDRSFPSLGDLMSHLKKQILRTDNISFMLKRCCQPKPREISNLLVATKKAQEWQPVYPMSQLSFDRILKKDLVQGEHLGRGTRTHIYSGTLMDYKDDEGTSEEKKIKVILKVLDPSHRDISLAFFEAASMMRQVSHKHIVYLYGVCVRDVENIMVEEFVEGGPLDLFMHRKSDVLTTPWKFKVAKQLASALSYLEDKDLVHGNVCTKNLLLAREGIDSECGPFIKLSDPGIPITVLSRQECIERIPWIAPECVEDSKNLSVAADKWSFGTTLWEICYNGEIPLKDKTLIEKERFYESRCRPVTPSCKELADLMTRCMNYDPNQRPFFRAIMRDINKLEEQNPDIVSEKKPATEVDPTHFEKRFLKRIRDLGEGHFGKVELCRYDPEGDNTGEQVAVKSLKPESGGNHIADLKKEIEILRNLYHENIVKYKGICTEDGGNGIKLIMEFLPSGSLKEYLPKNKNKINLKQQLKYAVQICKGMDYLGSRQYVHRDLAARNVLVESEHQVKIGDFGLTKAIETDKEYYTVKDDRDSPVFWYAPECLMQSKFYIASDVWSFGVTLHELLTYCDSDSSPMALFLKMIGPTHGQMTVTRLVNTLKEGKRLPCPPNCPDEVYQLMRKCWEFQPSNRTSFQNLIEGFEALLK

Take `N#CCC1(n2cc(-c3ncnc4[nH]ccc34)cn2)CN(C2CCN(C(=O)c3ccnc(C(F)(F)F)c3F)CC2)C1` [Itacitinib]: on JAK1, the IC50 was 3.6 nM. In data set [1], the “adverse events at highest total daily dose” value is on record as “no adverse events”.
For “CXCL10: IFNG-regulated CXCR3 ligand chemokine injected intra/peritumorally”, the “rescue of the decrease in NK/ILC frequency after CD8 T cell depletion” value in data set [2] is given as “partially rescue”.
As for “Pembrolizumab: humanized monoclonal antibody of the IgG4/kappa isotype blocking the interaction between PD-1 and its ligands”, in data set [3] (PD-L1 expression greater than or equal to 50%), the “overall and progression free survival versus platinum doublet chemotherapy” value is “superior overall and progression free survival; also recorded: improve overall survival and progression free survival”. In addition, in data set [3] (first line NSCLC, tumors expressing high level of PD-L1 (>50%)), the response rate is listed as 44.8%. For the same compound, the ORR in data set [3] (untreated PD-L1 positive advanced NSCLC) was 45%.

These data come from patent US12662705B2, “Interferon pathway genes regulate and predict efficacy of immunotherapy” (THE TRUSTEES OF THE UNIVERSITY OF PENNSYLVANIA, priority 2018, dated 2026).
